Broadly, the bioavailability is dose-corrected exposure relative to a reference, in per cent. As a reminder, the fraction unbound is the share of the substance not bound to proteins or other matrix.

The values below come from US11013780B2, “Methods of treating female infertility” (Myovant Sciences GmbH, priority 2016, dated 2021).

The conditions of series [1]: rat, in vivo; cited from earlier work.
The next series in a line: in vitro. The following applies: rat, dog, monkey, human, plasma. The series is classed as in vitro ADME, rats, dogs, monkeys, humans. As for the experimental part:
The in vitro distribution ratios of [^14C]API-MA into the blood cells at the concentrations of 0.01, 0.1, 1, and 10 μg/mL API-FB (free form) were 7.8%, 8.0%, 7.1%, and 4.8% for rats, 2.4%, 2.0%, 1.6%, and 1.2% for dogs, and 2.0%, 0.0%, 0.0%, and 0.5% for humans, respectively. […] The in vitro plasma protein binding ratios of [^14C]API-FB in rats, dogs, monkeys, and humans were determined by the ultracentrifugation method. In addition, the protein binding to human serum albumin (HSA), α1-acid glycoprotein (AGP), and HSA/AGP was investigated. […] In rats and dogs, a slight decrease in the binding ratio at the concentration range between 0.1 and 1.0 μg/mL API-FB was observed. In monkeys and humans, the binding was independent of the drug concentrations from 0.01 to 10 μg/mL API-FB.

Where a SMILES comes first, the peptide text is derived from it. [ ]: non-standard residue; d: D form. Arg(Me) = CNC(=N)NCCC[C@H](N)C(=O)O; Hyp = O=C(O)[C@@H]1C[C@@H](O)CN1; azaGly = NNC(=O)O

Turning to `CNC(=N)NCCC[C@H](NC(=O)[C@H](CC(C)C)NC(=O)NNC(=O)[C@H](Cc1ccccc1)NC(=O)[C@@H](NC(=O)[C@H](CC(N)=O)NC(=O)[C@@H]1C[C@@H](O)CN1C(=O)[C@@H](Cc1ccc(O)cc1)NC(C)=O)[C@@H](C)O)C(=O)N[C@@H](Cc1c[nH]c2ccccc12)C(N)=O` [Compound 1, 2-(N-Acetyl-D-tyrosyl-trans-4-hydroxy-L-prolyl-L-asparaginyl-L-threonyl-L-phenylalanyl)-hydrazinocarbonyl-L-leucyl-Nω-methyl-L-arginyl-L-tryptophanamide] (Ac-[dY][Hyp]NTF[azaGly]L[Arg(Me)]W-NH2), the bioavailability in series [1] is given as 66.3%. Besides, the fraction unbound in the series “in vitro” fell in the range of 0.267 to 0.447.
